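Where inhibition never reached the appropriate level, the endpoint shown equals the highest concentration tested. Otherwise, values were interpolated linearly from a five-concentration, 48-hour dose response in 96-well plates. At the TGI there is no net growth.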
How the values were obtained:
Assay in all cases: DTP human tumour cell line panel, 48 h
[1] = system: DMS 114 small cell lung
[2] = system: SF-268 CNS
[3] = system: NCI-H522 lung
[4] = system: OVCAR-5 ovarian
[5] = system: UO-31 renal
[6] = system: A549 NSCLC
[7] = system: XF 498 CNS
[8] = system: OVCAR-4 ovarian
[9] = system: HOP-92 NSCLC
[10] = system: IGROV1 ovarian
[11] = system: CCRF-CEM leukemia
[12] = system: ACHN renal
[13] = system: NCI-H460 lung
[14] = system: M19-MEL melanoma
[15] = system: HL-60(TB) leukemia
[16] = system: NCI-H226 lung
[17] = system: A498 renal
[18] = system: KM12 colon
[19] = system: LXFL 529 NSCLC
[20] = system: HCT-15 colon
[21] = system: SR leukemia
[22] = system: HCT-116 colon
[23] = system: 786-0 renal
[24] = system: DMS 273 small cell lung
[25] = system: SF-539 CNS
[26] = system: COLO 205 colon
[27] = system: SNB-75 CNS
[28] = system: TK-10 renal
[29] = system: NCI-H23 lung
[30] = system: RXF-631 renal
[31] = system: SK-OV-3 ovarian
[32] = system: HOP-62 NSCLC
[33] = system: SK-MEL-2 melanoma
[34] = system: SW-620 colon
[35] = system: UACC-62 melanoma
[36] = system: RPMI-8226 leukemia
[37] = system: SN12C renal
[38] = system: KM20L2 colon
[39] = system: OVCAR-3 ovarian
[40] = system: CAKI-1 renal
[41] = system: LOX IMVI melanoma
[42] = system: OVCAR-8 ovarian
[43] = system: SK-MEL-5 melanoma
[44] = system: MALME-3M melanoma
[45] = system: UACC-257 melanoma
[46] = system: HOP-18 NSCLC
[47] = system: DLD-1 colon
[48] = system: HT29 colon
[49] = system: U251 CNS
[50] = system: SK-MEL-28 melanoma
[51] = system: MOLT-4 leukemia
[52] = system: SF-295 CNS
[53] = system: M14 melanoma
[54] = system: SNB-19 CNS
[55] = system: HCC-2998 colon
[56] = system: K-562 leukemia
[57] = system: RXF 393 renal
[58] = system: EKVX NSCLC
[59] = system: SNB-78 CNS

In the case of `CC(C)(O)[C@@H]1CC[C@@]2(C)CCC[C@H](O)[C@H]2C1`, the TGI [1] is reported as over 100 µM, the TGI [2] is reported as over 100 µM and the TGI [3] is reported as over 100 µM. It also gave a TGI [4] of over 100 µM, a TGI [5] of over 100 µM and a TGI [6] of over 100 µM. It also gave a TGI [7] of over 100 µM, a TGI [8] of over 100 µM and a TGI [9] of over 100 µM. For the same compound, the TGI [10] was over 100 µM, the TGI [11] was over 100 µM and the TGI [12] was over 100 µM. It also gave a TGI [13] of over 100 µM, a TGI [14] of over 100 µM and a TGI [15] of over 100 µM. For the same compound, the TGI [16] was over 100 µM, the TGI [17] was over 100 µM and the TGI [18] was over 100 µM. For the same compound, the TGI [19] was over 100 µM, the TGI [20] was over 100 µM and the TGI [21] was over 100 µM. It also gave a TGI [22] of over 100 µM, a TGI [23] of over 100 µM and a TGI [24] of over 100 µM. For the same compound, the TGI [25] was over 100 µM, the TGI [26] was over 100 µM and the TGI [27] was over 100 µM. For the same compound, the TGI [28] was over 100 µM, the TGI [29] was over 100 µM and the TGI [30] was over 100 µM. The TGI [31] was over 100 µM, the TGI [32] was over 100 µM and the TGI [33] was over 100 µM. For the same compound, the TGI [34] was over 100 µM, the TGI [35] was over 100 µM and the TGI [36] was over 100 µM. It also gave a TGI [37] of over 100 µM, a TGI [38] of over 100 µM and a TGI [39] of over 100 µM. The TGI [40] was over 100 µM, the TGI [41] was over 100 µM and the TGI [42] was over 100 µM. It also gave a TGI [43] of over 100 µM, a TGI [44] of over 100 µM and a TGI [45] of over 100 µM. The TGI [46] was over 100 µM, the TGI [47] was over 100 µM and the TGI [48] was over 100 µM. For the same compound, the TGI [49] was over 100 µM, the TGI [50] was over 100 µM and the TGI [51] was over 100 µM. It also gave a TGI [52] of over 100 µM, a TGI [53] of over 100 µM and a TGI [54] of over 100 µM. It also gave a TGI [55] of over 100 µM and a TGI [56] of over 100 µM.
`C/C(CC(=O)Nc1ccc(Cl)cc1)=N\NC(=O)C[n+]1ccccc1` showed a TGI [1] of over 100 µM, a TGI [2] of over 100 µM and a TGI [3] of over 100 µM. The TGI [4] was over 100 µM, the TGI [5] was over 100 µM and the TGI [6] was over 100 µM. The TGI [7] was over 100 µM, the TGI [57] was over 100 µM and the TGI [9] was over 100 µM. For the same compound, the TGI [10] was over 100 µM, the TGI [11] was over 100 µM and the TGI [12] was over 100 µM. For the same compound, the TGI [13] was over 100 µM, the TGI [15] was over 100 µM and the TGI [16] was over 100 µM. The TGI [58] was over 100 µM, the TGI [59] was over 100 µM and the TGI [18] was over 100 µM. The TGI [19] was over 100 µM, the TGI [22] was over 100 µM and the TGI [23] was over 100 µM. It also gave a TGI [24] of over 100 µM, a TGI [25] of over 100 µM and a TGI [26] of over 100 µM. For the same compound, the TGI [27] was over 100 µM, the TGI [28] was over 100 µM and the TGI [29] was over 100 µM. For the same compound, the TGI [30] was over 100 µM, the TGI [31] was over 100 µM and the TGI [32] was over 100 µM. The TGI [33] was over 100 µM, the TGI [34] was over 100 µM and the TGI [35] was over 100 µM. The TGI [36] was over 100 µM, the TGI [38] was over 100 µM and the TGI [39] was over 100 µM. It also gave a TGI [41] of over 100 µM, a TGI [42] of over 100 µM and a TGI [43] of over 100 µM. The TGI [44] was over 100 µM, the TGI [45] was over 100 µM and the TGI [47] was over 100 µM. The TGI [48] was over 100 µM, the TGI [49] was over 100 µM and the TGI [50] was over 100 µM. It also gave a TGI [51] of over 100 µM, a TGI [52] of over 100 µM and a TGI [53] of over 100 µM. For the same compound, the TGI [55] was over 100 µM and the TGI [56] was over 100 µM.
`O=c1cc(-c2ccccc2)[nH]c2c(Cl)cccc12` showed a TGI [1] of over 100 µM, a TGI [2] of over 100 µM and a TGI [5] of over 100 µM. The TGI [6] was over 100 µM, the TGI [7] was 96.4 µM and the TGI [8] was 66.3 µM. For the same compound, the TGI [57] was 67.1 µM, the TGI [10] was over 100 µM and the TGI [11] was over 100 µM. The TGI [12] was over 100 µM, the TGI [13] was over 100 µM and the TGI [14] was over 100 µM. For the same compound, the TGI [15] was over 100 µM, the TGI [16] was 81 µM and the TGI [17] was 91.6 µM. For the same compound, the TGI [58] was over 100 µM, the TGI [19] was over 100 µM and the TGI [20] was over 100 µM. The TGI [21] was over 100 µM, the TGI [22] was over 100 µM and the TGI [23] was over 100 µM. The TGI [24] was over 100 µM, the TGI [25] was 41.7 µM and the TGI [26] was over 100 µM. It also gave a TGI [27] of 54.8 µM, a TGI [28] of over 100 µM and a TGI [29] of over 100 µM. For the same compound, the TGI [30] was over 100 µM, the TGI [32] was over 100 µM and the TGI [33] was over 100 µM. The TGI [34] was over 100 µM, the TGI [35] was 67.3 µM and the TGI [36] was over 100 µM. For the same compound, the TGI [37] was over 100 µM, the TGI [38] was 36 µM and the TGI [39] was over 100 µM. For the same compound, the TGI [41] was over 100 µM, the TGI [42] was over 100 µM and the TGI [43] was 45.4 µM. For the same compound, the TGI [44] was over 100 µM, the TGI [45] was over 100 µM and the TGI [47] was over 100 µM. The TGI [48] was over 100 µM, the TGI [49] was over 100 µM and the TGI [50] was over 100 µM. The TGI [51] was over 100 µM, the TGI [52] was 58.5 µM and the TGI [53] was over 100 µM. It also gave a TGI [54] of over 100 µM, a TGI [55] of over 100 µM and a TGI [56] of over 100 µM.
For `COC1=C2C[C@H](O)C(C)C[C@@]2(OC)OC1=O` (stereo partly specified), the TGI [2] was over 100 µM, the TGI [3] was over 100 µM and the TGI [5] was over 100 µM. For the same compound, the TGI [6] was over 100 µM, the TGI [7] was over 100 µM and the TGI [8] was over 100 µM. For the same compound, the TGI [57] was over 100 µM, the TGI [9] was over 100 µM and the TGI [10] was over 100 µM. It also gave a TGI [11] of over 100 µM, a TGI [13] of over 100 µM and a TGI [14] of over 100 µM. The TGI [15] was over 100 µM, the TGI [17] was over 100 µM and the TGI [59] was over 100 µM. The TGI [18] was over 100 µM, the TGI [19] was over 100 µM and the TGI [20] was over 100 µM. It also gave a TGI [22] of over 100 µM, a TGI [23] of over 100 µM and a TGI [24] of over 100 µM. The TGI [25] was over 100 µM, the TGI [26] was over 100 µM and the TGI [27] was over 100 µM. The TGI [29] was over 100 µM, the TGI [30] was over 100 µM and the TGI [31] was over 100 µM. It also gave a TGI [32] of over 100 µM, a TGI [33] of over 100 µM and a TGI [34] of over 100 µM. The TGI [35] was over 100 µM, the TGI [36] was over 100 µM and the TGI [37] was over 100 µM. For the same compound, the TGI [39] was over 100 µM, the TGI [40] was over 100 µM and the TGI [41] was over 100 µM. It also gave a TGI [43] of over 100 µM, a TGI [44] of over 100 µM and a TGI [45] of over 100 µM. It also gave a TGI [47] of over 100 µM, a TGI [48] of over 100 µM and a TGI [49] of over 100 µM. It also gave a TGI [50] of over 100 µM, a TGI [51] of over 100 µM and a TGI [52] of over 100 µM. The TGI [53] was over 100 µM, the TGI [54] was over 100 µM and the TGI [55] was over 100 µM. The TGI [56] was over 100 µM.

— PubChem BioAssay (NCI)
